Data taken from PMC8783508, “A novel D-amino acid peptide with therapeutic potential (ISAD1) inhibits aggregation of neurotoxic disease-relevant mutant Tau and prevents Tau toxicity in vitro” (Alzheimer's Research & Therapy, 2022).
Non-standard residues stand in square brackets, D forms with d. Residues, ends and D or L forms follow the SMILES beside them.

Experiments:
Format in all cases: cell-based
[1] = system: N2a-Tau^RDΔK cells; experiment: MTT, toxicity of externally added Tau^RDΔK aggregates; details: Tau^RDΔK pre-incubated with peptide 1:10, 24 h, 37 °C; 10 μM Tau, 100 μM peptide final, 24 h on cells, n = 3
Method: Cell viability was analyzed in accordance with the manufacturer’s protocol (Roche Diagnostics, Mannheim, Germany; cell proliferation kit II (MTT)). This assay is based on the cleavage of the yellow tetrazolium salt MTT into purple formazan dye by metabolic active cells. The color changes only in viable cells and can be directly quantified using a scanning multiwell spectrophotometer. In all experiments, the cells were grown as described previously. The cells (25,000 cells/well or 80% confluence) were plated on poly D-lysine-coated 96-well plates (Greiner Bio-One GmbH, Frickenhausen, Germany) for stronger attachment from overnight to 24 h at 37 °C. Fibrillized Tau^RDΔK was generated by incubating 200 μM Tau^RDΔK in BES buffer at 37 °C for 24 h in the presence of 2 mM D-peptides (Tau^RDΔK:peptide = 1:10). Successful fibrillization was verified using ThS (5 μM Tau^RDΔK, 10 μM ThS) measurement. The aggregated Tau^RDΔK (10 μM final concentration), Tau^RDΔK (10 μM) + peptide (100 μM) samples (ISAD1 and ISAD1rev), buffer only (negative control, set to 100% cell viability), and TritonX-100 (2%, cytotoxic agent, positive control) were incubated on N2a-Tau^RDΔK cells (100 μl solution) for another 24 h. The cell viability was measured in accordance with the manufacturer’s protocol.

[2] = system: N2a-Tau^RDΔK cells; experiment: LDH release, intracellularly expressed Tau^RDΔK (Dox induced); details: 1 μg/ml doxycycline, peptide 25, 50, 100, 250 μM, n = 2
Method: (§1) After the N2a-Tau^RDΔK cells reached the desired confluence (25,000 cells/well or 80%), intracellular Tau^RDΔK expression was induced by the addition of 1 μg/ml Dox. The cells were plated on poly D-lysine-coated 96-well plates (Greiner Bio-One GmbH, Frickenhausen, Germany) and treated with ISAD1 and ISAD1rev in a concentration range of 25 to 250 μM. TritonX-100 (2%) was used as a positive control. The incubation and Tau^RDΔK expression time was 72 h. Following incubation, cell viability was studied by measuring MTT and LDH release in accordance with the manufacturer’s protocol.

[3] = system: N2a-Tau^RDΔK cells; experiment: MTT, intracellularly expressed Tau^RDΔK (Dox induced); details: 1 μg/ml doxycycline, 72 h, n = 2
Method: as §1

CC(C)C[C@@H](NC(=O)[C@@H](CO)NC(=O)[C@@H](CC(C)C)NC(=O)[C@H](NC(=O)[C@@H](CC(=O)O)NC(=O)[C@@H](C)NC(=O)[C@@H](C)NC(=O)[C@H](N)CO)[C@H](C)O)C(=O)N[C@H](CCCCN)C(=O)N[C@H](Cc1ccccc1)C(=O)N[C@@H](C(=O)N[C@H](CO)C(=O)O)C(C)C [ISAD1rev] (H-[dS][dA][dA][dD][dT][dL][dS][dL][dK][dF][dV][dS]-OH; N-terminus and C-terminus assumed)
Effect on toxicity of Tau aggregates, cell viability (MTT) [1]: preserving cell viability | Effect on LDH release of cells expressing Tau^RDΔK [2]: Protection of cell membrane integrity | Cell viability at 50 μM peptide [3]: no increase in cell viability
